Source: ChEMBL document CHEMBL1781989, “Novel β-carboline-tripeptide conjugates attenuate mesenteric ischemia/reperfusion injury in the rat” (2011)

Legend:
Type in all cases: functional
[1] = tested on: Mus musculus; test: Analgesic activity in ICR mouse assessed as increase in pain threshold at 0.15 mmol/kg, ip after 30 mins by tail flick method (reference value: 5.03 +/- 10.26 %)
[2] = tested on: Mus musculus; test: Analgesic activity in ICR mouse assessed as increase in pain threshold at 0.15 mmol/kg, ip after 60 mins by tail flick method (reference value: 7.45 +/- 8.03 %)
[3] = tested on: Mus musculus; test: Analgesic activity in ICR mouse assessed as increase in pain threshold at 0.15 mmol/kg, ip after 90 mins by tail flick method (reference value: 7.53 +/- 11.54 %)
[4] = tested on: Mus musculus; test: Analgesic activity in ICR mouse assessed as increase in pain threshold at 0.15 mmol/kg, ip after 120 mins by tail flick method (reference value: 8.09 +/- 13.28 %)
[5] = tested on: Mus musculus; test: Analgesic activity in ICR mouse assessed as increase in pain threshold at 0.15 mmol/kg, ip after 150 mins by tail flick method (reference value: 9.02 +/- 12.19 %)
[6] = tested on: Mus musculus; test: Analgesic activity in ICR mouse assessed as increase in pain threshold at 0.15 mmol/kg, ip after 180 mins by tail flick method (reference value: 8.75 +/- 9.73 %)

CN1CC[C@]23c4c5ccc(O)c4O[C@H]2[C@@H](O)C=C[C@H]3[C@H]1C5 [MORPHINE] showed an Activity [1] of 142.2%, an Activity [2] of 175.78% and an Activity [3] of 139.03%. For the same compound, the Activity [4] was 98.78%, the Activity [5] was 64.55% and the Activity [6] was 57.43%.
